Data from ChEMBL document CHEMBL5052840, “Pharmaceutical compounds and therapeutic methods” (2020).
Calls of active or inactive are those of the source. The calls are words filed in the database; no cut-off is given here.

Key:
[1] = Plasma concentration in male C57BL/6 mouse at 10 mg/kg, ip administered as single dose measured at 0.08 hrs measured by LC/MS-MS analysis; assay type: ADME, organism-based
[2] = target: T1, Polycomb complex protein BMI-1 (Homo sapiens) (UniProt P35226); experiment: Inhibition of BMI1 in human Glioblastoma cell 3D spheres at 7 to 10 nM assessed as reduction in STAT1 levels measured by Western blotting method; assay type: cell-based; conditions: Glioblastoma cell line, dose 7-10 nM
T1 sequence (whole entry): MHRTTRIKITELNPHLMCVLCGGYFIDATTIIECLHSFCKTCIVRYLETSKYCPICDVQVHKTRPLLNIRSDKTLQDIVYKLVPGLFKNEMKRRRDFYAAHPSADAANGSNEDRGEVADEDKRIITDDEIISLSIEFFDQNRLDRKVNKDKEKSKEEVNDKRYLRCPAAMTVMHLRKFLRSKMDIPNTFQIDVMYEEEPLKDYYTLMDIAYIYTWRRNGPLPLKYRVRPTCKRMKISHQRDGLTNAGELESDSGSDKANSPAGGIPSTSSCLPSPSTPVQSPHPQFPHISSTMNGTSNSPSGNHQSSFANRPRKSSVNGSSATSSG

[3] = Ratio of drug level in male C57BL/6 mouse brain to plasma at 10 mg/kg, po administered as single dose measured at 0.08 hrs measured by LC/MS-MS analysis; assay type: ADME, organism-based; conditions: read-out: BPR
[4] = Ratio of drug level in male C57BL/6 mouse brain to plasma at 10 mg/kg, ip administered as single dose measured at 3 hrs measured by LC/MS-MS analysis; assay type: ADME, organism-based; conditions: read-out: BPR
[5] = Brain concentration in male C57BL/6 mouse at 10 mg/kg, po administered as single dose measured at 12 hrs measured by LC/MS-MS analysis; assay type: ADME, organism-based; conditions: read-out: Drug uptake
[6] = Brain concentration in male C57BL/6 mouse at 10 mg/kg, ip administered as single dose measured at 24 hrs measured by LC/MS-MS analysis; assay type: ADME, organism-based; conditions: read-out: Drug uptake
[7] = Brain concentration in male C57BL/6 mouse at 10 mg/kg, iv administered as single dose measured at 6 hrs measured by LC/MS-MS analysis; assay type: ADME, organism-based; conditions: read-out: Drug uptake
[8] = Ratio of drug level in male C57BL/6 mouse brain to plasma at 10 mg/kg, ip administered as single dose measured at 0.08 hrs measured by LC/MS-MS analysis; assay type: ADME, organism-based; conditions: read-out: BPR
[9] = Brain concentration in male C57BL/6 mouse at 10 mg/kg, ip administered as single dose measured at 0.08 hrs measured by LC/MS-MS analysis; assay type: ADME, organism-based; conditions: read-out: Drug uptake
[10] = Plasma concentration in male C57BL/6 mouse at 10 mg/kg, po administered as single dose measured at 3 hrs measured by LC/MS-MS analysis; assay type: ADME, organism-based
[11] = Ratio of drug level in male C57BL/6 mouse brain to plasma at 10 mg/kg, ip administered as single dose measured at 1 hr measured by LC/MS-MS analysis; assay type: ADME, organism-based; conditions: read-out: BPR
[12] = Brain concentration in male C57BL/6 mouse at 10 mg/kg, ip administered as single dose measured at 12 hrs measured by LC/MS-MS analysis; assay type: ADME, organism-based; conditions: read-out: Drug uptake
[13] = Ratio of drug level in male C57BL/6 mouse brain to plasma at 10 mg/kg, iv administered as single dose measured at 1 hr measured by LC/MS-MS analysis; assay type: ADME, organism-based; conditions: read-out: BPR
[14] = Plasma concentration in male C57BL/6 mouse at 10 mg/kg, ip administered as single dose measured at 0.35 hrs measured by LC/MS-MS analysis; assay type: ADME, organism-based
[15] = Brain concentration in male C57BL/6 mouse at 10 mg/kg, iv administered as single dose measured at 1 hr measured by LC/MS-MS analysis; assay type: ADME, organism-based; conditions: read-out: Drug uptake
[16] = Brain concentration in male C57BL/6 mouse at 10 mg/kg, iv administered as single dose measured at 3 hrs measured by LC/MS-MS analysis; assay type: ADME, organism-based; conditions: read-out: Drug uptake
[17] = Brain concentration in male C57BL/6 mouse at 10 mg/kg, ip administered as single dose measured at 3 hrs measured by LC/MS-MS analysis; assay type: ADME, organism-based; conditions: read-out: Drug uptake
[18] = Plasma concentration in male C57BL/6 mouse at 10 mg/kg, iv administered as single dose measured at 0.08 hrs measured by LC/MS-MS analysis; assay type: ADME, organism-based
[19] = Efflux ratio of apparent permeability across basolateral to apical membrane over apical to basolateral membrane in human Caco-2 cells measured by LC-MS analysis; assay type: ADME, cell-based
[20] = Brain concentration in male C57BL/6 mouse at 10 mg/kg, iv administered as single dose measured at 0.35 hrs measured by LC/MS-MS analysis; assay type: ADME, organism-based; conditions: read-out: Drug uptake
[21] = Plasma concentration in male C57BL/6 mouse at 10 mg/kg, ip administered as single dose measured at 1 hr measured by LC/MS-MS analysis; assay type: ADME, organism-based
[22] = Ratio of drug level in male C57BL/6 mouse brain to plasma at 10 mg/kg, iv administered as single dose measured at 0.35 hrs measured by LC/MS-MS analysis; assay type: ADME, organism-based; conditions: read-out: BPR
[23] = Brain concentration in male C57BL/6 mouse at 10 mg/kg, iv administered as single dose measured at 0.08 hrs measured by LC/MS-MS analysis; assay type: ADME, organism-based; conditions: read-out: Drug uptake
[24] = Plasma concentration in male C57BL/6 mouse at 10 mg/kg, iv administered as single dose measured at 3 hrs measured by LC/MS-MS analysis; assay type: ADME, organism-based
[25] = Plasma concentration in male C57BL/6 mouse at 10 mg/kg, po administered as single dose measured at 1 hr measured by LC/MS-MS analysis; assay type: ADME, organism-based
[26] = Ratio of drug level in male C57BL/6 mouse brain to plasma at 10 mg/kg, po administered as single dose measured at 1 hr measured by LC/MS-MS analysis; assay type: ADME, organism-based; conditions: read-out: BPR
[27] = Brain concentration in male C57BL/6 mouse at 10 mg/kg, ip administered as single dose measured at 6 hrs measured by LC/MS-MS analysis; assay type: ADME, organism-based; conditions: read-out: Drug uptake
[28] = target: T1, Polycomb complex protein BMI-1 (Homo sapiens); experiment: Inhibition of BMI1 in human Glioblastoma cell 3D spheres at 7 to 10 nM assessed as reduction in phospho-RB levels measured by Western blotting method; assay type: cell-based; conditions: Glioblastoma cell line, dose 7-10 nM
[29] = Ratio of drug level in male C57BL/6 mouse brain to plasma at 10 mg/kg, iv administered as single dose measured at 6 hrs measured by LC/MS-MS analysis; assay type: ADME, organism-based; conditions: read-out: BPR
[30] = Ratio of drug level in male C57BL/6 mouse brain to plasma at 10 mg/kg, iv administered as single dose measured at 3 hrs measured by LC/MS-MS analysis; assay type: ADME, organism-based; conditions: read-out: BPR
[31] = Ratio of drug level in male C57BL/6 mouse brain to plasma at 10 mg/kg, po administered as single dose measured at 0.35 hrs measured by LC/MS-MS analysis; assay type: ADME, organism-based; conditions: read-out: BPR
[32] = target: T1, Polycomb complex protein BMI-1 (Homo sapiens); experiment: Inhibition of BMI1 in human Glioblastoma cell 3D spheres at 7 to 10 nM assessed as reduction in BMI1 protein levels measured by Western blotting method; assay type: cell-based; conditions: Glioblastoma cell line, dose 7-10 nM
[33] = Brain concentration in male C57BL/6 mouse at 10 mg/kg, ip administered as single dose measured at 1 hr measured by LC/MS-MS analysis; assay type: ADME, organism-based; conditions: read-out: Drug uptake

concentration at 0.08 h [1]: 713 ng/mL
inhibition [2]: Active
Kp at 0.08 h [3]: 0.78
Kp at 3 h [4]: 1.6
concentration at 12 h [5]: 3.9 ng/g
concentration at 24 h [6]: 6.21 ng/g
concentration at 6 h [7]: 5.13 ng/g
Kp at 0.08 h [8]: 1.05
concentration at 0.08 h [9]: 558 ng/g
concentration at 3 h [10]: 3.35 ng/mL
Kp at 1 h [11]: 2.78
concentration at 12 h [12]: 159 ng/g
Kp at 1 h [13]: 1.67
concentration at 0.35 h [14]: 426 ng/mL
concentration at 1 h [15]: 225 ng/g
concentration at 3 h [16]: 9.01 ng/g
concentration at 3 h [17]: 558 ng/g
concentration at 0.08 h [18]: 1580 ng/mL
Ratio [19]: 0.9
concentration at 0.35 h [20]: 514 ng/g
concentration at 1 h [21]: 79.1 ng/mL
Kp at 0.35 h [22]: 1.83
concentration at 0.08 h [23]: 1660 ng/g
concentration at 3 h [24]: 5.64 ng/mL
concentration at 1 h [25]: 29.3 ng/mL
Kp at 1 h [26]: 2.01
concentration at 6 h [27]: 680 ng/g
inhibition [28]: Active
Kp at 6 h [29]: 1.81
Kp at 3 h [30]: 1.73
Kp at 0.35 h [31]: 1.6
inhibition [32]: Active
concentration at 1 h [33]: 159 ng/g
SMILES: Cc1nc2ccccn2c1-c1csc(Nc2ccc3c(c2)OC(F)(F)O3)n1.Cl
